According to article PMC10111420, “Optimization of Host Cell-Compatible, Antimicrobial Peptides Effective against Biofilms and Clinical Isolates of Drug-Resistant Bacteria” (ACS Infectious Diseases, 2023):
Values after ≈ are worked out from the molar mass of the structure shown. Where a SMILES comes first, the peptide text is derived from it. [ ]: non-standard residue; d: D form.

Legend:
[1] = tested on: P. aeruginosa and MRSA wound biofilms; experiment: SEM of Tegaderm wound dressing, both bacteria pooled; type: in vivo, CD1 mice; conditions: 68 images from treated animals, Day 3 Tegaderm
From the text: The Tegaderm dressing used in the murine wound model is an excellent substrate for bacterial adhesion and biofilm formation.[5],[15] […] We imaged three to four randomly selected areas of each Tegaderm sample at two magnifications each. Each image is scored for the presence/absence of bacterial cells, either rod-shaped P. aeruginosa, ∼1 μm in diameter, or spherical MRSA cocci, ∼0.9 μm in diameter. Images are also scored for biofilm-like structures defined by having multiple bacteria embedded in an obvious three-dimensional matrix. These distinctions are shown by representative images of the fixed Tegaderm dressings in Figure 9A,B. In vehicle control samples, we observed that P. aeruginosa frequently forms an open, three-dimensional matrix in which many cells are entangled in μm-long fibers. We observed that MRSA also forms a matrix in which cells are close-packed in strands that comprise a large-scale mesh. Every SEM image (68/68) from vehicle control samples of the two bacteria contained obvious visible bacteria, and most of these images contained ≥50 individual cells. In samples from peptide-treated animals, 57 of 68 (84%) of images had no visible bacteria. […] We performed a statistical analysis of observed bacteria and biofilms using the binomial equation. P-values for all comparisons of treated vs vehicle were less than 0.001. […]

[2] = tested on: K. pneumoniae clinical isolates; experiment: microbe, parasite or virus in culture; conditions: clinical isolates
Protocol: Subcultures, prepared by inoculating 25 mL of fresh tryptic soy broth (TSB) with 200 μL of an overnight culture, were grown to log phase (OD600 = 0.3–0.6), after which cell counts were determined by measuring the OD600 (1.0 = 5 × 10^8 CFU/mL for E. coli, 4 × 10^8 CFU/mL for K. pneumoniae, 4 × 10^8 CFU/mL for P. aeruginosa, 1.5 × 10^8 CFU/mL for S. aureus). Bacterial cells were diluted to appropriate concentrations in TSB. We used the following clinical bacterial isolates of Klebsiella pneumoniae in this study: Strains KP6, KP46, NDM-1, KP396, and KP398 have been previously described.[43] ST58 strains C2, C3, and I2 are also described.[41] […] MRSA, […] S. aureus strain, is SAP400, a USA400 strain of community-acquired MRSA. […] The second independent set of K. pneumoniae isolates are previously described.[20],[21]
The antibiotics were serially diluted by a factor of 2:3 horizontally across 96-well plates from Corning, 25 μL per well. One column was reserved for controls. For the assays performed in the presence of RBC, type O+ human RBCs at 0 or 2.5 × 10^9 cells/mL were added in 50 μL aliquots to all wells. […] To assess bacterial growth in the assays with RBC, the OD600 was measured after a second-day inoculation with 10 μL of solution from the original plate added to 100 μL of sterile TSB followed by overnight incubation.
Experiments were repeated four to eight times independently, with pairs of replicate measurements on each 96-well plate. After overnight growth, optical densities were measured at 660 nm and the sterilized wells were identified by having O.D. < 0.08. Nonsterilized wells were nearly opaque with OD > 0.6. For each measurement, we recorded the largest dilution that sterilized the bacteria. Statistics are done on dilution numbers, rather than calculated concentrations, because only the former have normal distributions.

[3] = tested on: luminescent MRSA; experiment: Murine wound infection model, MRSA; type: in vivo, CD1 mice; conditions: 75 μg in 20 μL water with 0.025% acetic acid, topical, every 8 h for the first 5 days; luminescence (IVIS), Days 1–3; four animals per group
Protocol: (§1) Wound luminescence values were recorded once per day for each animal during the experiment using an IVIS whole animal imaging system. Total luminescence values, integrated over the entire wound area, were averaged for the four animals in each group. Treated versus control values were compared for each day using a two-sample t-test. Multiple comparisons were corrected using the method of Bonferroni.

[4] = tested on: luminescent P. aeruginosa (PAO1); experiment: Murine wound infection model, P. aeruginosa; type: in vivo, CD1 mice; conditions: 75 μg in 20 μL water with 0.025% acetic acid, topical, every 8 h for the first 5 days; luminescence (IVIS), Days 1–3; four animals per group
Protocol: as §1

[5] = tested on: Acinetobacter baumannii (PDR) Tulane isolate; conditions: PDR) Tulane isolate
[6] = tested on: P. aeruginosa PAO1 (EYFP) pellicle biofilms; experiment: Pellicle biofilm assay, viable cell enumeration; type: cell-based, Pseudomonas aeruginosa
Protocol: Here, we directly compare the antibiofilm activity of D-CONGA and D-CONGA-Q7 using a mature pellicle biofilm of P. aeruginosa.[22] […] To determine the susceptibility of pellicle biofilms to D-CONGA and D-CONGA-Q7, we cultured 2-day-old biofilms as described in the Methods section. The coverslip-adhered biofilms were exposed to challenge solution for 24 h prior to staining with SYTOX red and imaging with CLSM for EYFP, which indicates live cells, and for SYTOX Red which stains dead cells and extracellular DNA. […] The % cell survival was quantitated in two ways: (i) COMSTAT was used to compare biofilm biomass in CLSM images by estimating the biofilm biovolume, which is calculated as the overall volume/substratum area (μm^3/μm^2).[24],[25] […] (ii) The biofilms were dispersed mechanically for subsequent enumeration of viable cells such that % survival is expressed as the ratio (CFUuntreated biofilm/CFUtreated biofilm).
The susceptibility of biofilm-embedded P. aeruginosa cells to the antimicrobial peptides was studied as reported previously[23] using a P. aeruginosa PAO1 strain expressing enhanced yellow fluorescent protein (EYFP).[22] The EYFP-expressing P. aeruginosa strain was routinely grown in Pseudomonas Isolation (PI) media (20 g/L peptone, 0.3 g/L, MgCl2·6H2O, 10 g/L, K2SO4, 25 mg/L irgasan, and 20 mL/L glycerol, pH 7.0). […] Iron supplementation was carried out by addition of a small volume of filter-sterilized 10 mM (NH4)2Fe(SO4)2 (pH ∼ 2.0) solution.
In brief: Starter cultures (5 mL PI media supplemented with 10 μM Fe) were grown (14 h) from a single-colony shaking (220 rpm) at 37 °C. To grow the pellicle biofilms, starter cultures were diluted to OD600 = 0.001 in 4 mL of PI media supplemented with 20 μM Fe, placed in 35 × 10 mm Petri dishes, and incubated statically at 30 °C for 48 h. The pellicles were harvested using circular (1.5 cm diameter) glass coverslips by gently allowing the surface of a coverslip to contact the biofilm at the air–liquid interface. […]

Structure (SMILES): CC(C)C[C@@H](NC(=O)[C@@H](CCC(N)=O)NC(=O)[C@@H](CCCNC(=N)N)NC(=O)[C@@H](CCCNC(=N)N)NC(=O)[C@@H](C)NC(=O)[C@@H](Cc1c[nH]c2ccccc12)NC(=O)[C@@H](CCCNC(=N)N)NC(=O)[C@H](N)CCCNC(=N)N)C(=O)N[C@H](C)C(=O)N[C@H](Cc1ccccc1)C(=O)N[C@H](C)C(=O)N[C@H](Cc1ccccc1)C(=O)N[C@H](CCCNC(=N)N)C(=O)N[C@H](CCCNC(=N)N)C(N)=O [D-CONGA-Q7] (H-[dR][dR][dW][dA][dR][dR][dQ][dL][dA][dF][dA][dF][dR][dR]-NH2; N-terminus assumed)
- Biofilm observed in SEM images [1]: no biofilm was observed
- MIC, KP 6 [2]: 3.2 µM (≈ 6.05 µg/mL)
- MIC, KP 46 [2]: 2.2 µM (≈ 4.16 µg/mL)
- MIC, KP 398 [2]: 3.8 µM (≈ 7.18 µg/mL)
- MIC, KP (CRE) [2]: 2.0 µM (≈ 3.78 µg/mL)
- MIC, KP ATCC 33495 [2]: 2.4 µM (≈ 4.53 µg/mL)
- MIC, KP ST258 C2 [2]: 8.9 µM (≈ 16.8 µg/mL)
- MIC, KP ST258 C3 [2]: 14 µM (≈ 26.4 µg/mL)
- MIC, KP ST258 I2 [2]: 1.4 µM (≈ 2.64 µg/mL)
- MIC, KP ST396 [2]: 1.9 µM (≈ 3.59 µg/mL)
- Maximum reduction of MRSA burden [3]: ≥ 4 logs
- Reduction of P. aeruginosa burden [4]: ~2 logs
- MIC, AB (PDR)Tulane [5]: 1.1 µM (≈ 2.08 µg/mL)
- Reduction of biofilm CFU ([6]; 2 μM, 48 h pellicle biofilm, 24 h challenge, dispersing and counting viable cells): 70%
- Reduction of viable biofilm bacteria ([6]; 8 μM peptide, 2-day-old pellicle biofilm, 24 h treatment in AB challenge media, 30 °C): ≥ 90%
